Data published in patent publication US10919908B2, “Thienopyrimidinone derivative and application thereof in preparing anticancer drug” (Henan Genuine Biotech Co., Ltd., priority 2017, dated 2021).

What was measured:
Mcl-1 protein = Mcl-1 protein (Homo sapiens, UniProt Q07820); test: Inhibition of Mcl-1 activity by fluorescence polarization (FP) competition with a fluorescein-labeled ligand; assay type: binding; conditions: 10 nM Mcl-1 protein, 10 nM labeled ligand, 2 hours at room temperature
[1] = tested on: Multiple myeloma tumor cells (H929); test: In vitro cytotoxicity, MTT assay, 48 hours exposure; assay type: cell-based; conditions: Homo sapiens, NCI-H929, MTT cell viability
Protocol: Multiple myeloma tumor cells (H929) were used for toxicity studies, and the cells were distributed in microtiter plates and exposed to the compounds tested for 48 hours.

Mcl-1 protein, sequence (Q07820 whole entry): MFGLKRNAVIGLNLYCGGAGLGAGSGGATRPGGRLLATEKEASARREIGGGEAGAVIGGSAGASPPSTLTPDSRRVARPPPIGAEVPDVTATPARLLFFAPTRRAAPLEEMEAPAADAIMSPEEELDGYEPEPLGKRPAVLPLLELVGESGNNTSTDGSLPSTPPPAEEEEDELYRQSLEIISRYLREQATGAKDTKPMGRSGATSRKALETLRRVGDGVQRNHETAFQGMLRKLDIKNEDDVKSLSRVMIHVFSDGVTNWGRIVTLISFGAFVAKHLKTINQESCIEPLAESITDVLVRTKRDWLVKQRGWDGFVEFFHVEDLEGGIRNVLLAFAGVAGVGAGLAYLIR

Cc1c(-c2c(-c3ccc(F)o3)sc3ncnc(O[C@@H](C(=O)O)C(F)(F)c4ccccc4OCc4ccnn4CC(F)(F)F)c23)ccc(OCCN2CCN(C)CC2)c1Cl [Compound 102]
IC50 (Mcl-1 protein): < 0.001 µM
IC50 [1]: > 0.01 µM

Cc1c(-c2c(-c3ccc(F)o3)sc3ncnc(O[C@H](C(=O)O)C(F)(F)c4ccccc4OCc4ccnn4CC(F)(F)F)c23)ccc(OCCN2CCN(C)CC2)c1Cl [Compound 103]
IC50 (Mcl-1 protein): 0.001 to 0.01 µM
IC50 [1]: > 0.01 µM

Cc1c(-c2c(-c3ccc(F)o3)sc3ncnc(O[C@H](Cc4ccccc4OCc4ccnn4CC(F)(F)F)C(=O)O)c23)ccc(OCCN2CCN(C)CC2)c1Cl [II, reference compound]
IC50 [1]: > 0.01 µM
